Laboratory results: patent US6887873B2, “Triazine derivatives and their application as antitelomerase agents” (Aventis Pharma S.A., priority 2001, dated 2005)

Legend:
[1] = test system: G-quadruplex of oligonucleotide GGGTTAGGGTTAGGGTTAGGG (3.5 repeats of the human telomereic motif); test: G-quadruplex stabilizing activity, fluorescence Tm (FAM+DABCYL oligonucleotide); format: binding
From the text: The G-quadruplex stabilizing activity may be determined by a method using the formation of a complex with fluorescein of which the experimental protocol is described below.
All the nucleotides, modified or otherwise, were synthesized by Eurogentec SA, Seraing, Belgium. The oligonucleotide FAM+DABCYL carries the catalogue reference OL-0371-0802. It has the sequence: […] corresponding to 3.5 repeats of the human telomereic motif (strand rich in G). The fluorescein is attached to the 5′ end, the DABCYL to the 3′ end, by the chemical arms described by Eurogentec. The concentration of the samples is checked by spectrophotometry, recording the absorbance spectrum between 220 and 700 nm and using the molar extinction coefficient provided by the supplier.
All the experiments were carried out in a 10 mM sodium cacodylate buffer pH 7.6 containing 0.1 M lithium chloride (or sodium chloride). The absence of fluorescent contamination in the buffer was checked beforehand. The fluorescent oligonucleotide is added at the final concentration of 0.2 μM.
All the measurements of fluorescence were carried out on a Spex Fluorolog DM1B apparatus, using an excitation line width of 1.8 nm and an emission line width of 4.5 nm. The samples are placed in a microquartz cuvette of 0.2×1 cm. The temperature of the sample is controlled by an external water bath. The oligonucleotide alone was analysed at 20, 30, 40, 50, 60, 70 and 80° C. The emission spectra are recorded using an excitation wavelength of 470 nm. The excitation spectra are recorded using either 515 nm or 588 nm as emission wavelength. The spectra are corrected for the response of the instrument by reference curves. A high extinction (80-90%) of the fluorescence of fluorescein at room temperature is observed, in agreement with an intramolecular folding of the oligonucleotide at 20° C. in the form of a G-quadruplex, which induces juxtaposition of its 5′ and 3′ ends which are respectively linked to fluorescein and to DABCYL. This juxtaposition causes an already-described phenomenon of extinction of fluorescence which is used for “molecular beacons”.
An oligonucleotide stock solution at the strand concentration of 0.2 μM in 0.1 M LiCl, 10 mM cacodylate buffer, pH 7.6, is prepared beforehand, heated briefly at 90° C. and slowly cooled to 20° C., and then distributed in aliquots of 600 μl in the fluorescence cuvettes. 3 μl of water (for the control) or 3 μl of test product (stock at 200 μM, final concentration 1 μM) are then added and mixed. The samples are then allowed to incubate for at least 1 hour at 20° C. before each measurement. The use of longer incubation times (up to 24 hours) has no influence on the result obtained.
Each experiment allows the measurement of only one sample. The latter is first incubated at an initial temperature of 20° C., heated to 80° C. over 38 minutes, left for 5 minutes at 80° C. and then cooled to 20° C. over 62 minutes. During this time, the fluorescence is measured simultaneously at two emission wavelengths (515 nm and 588 nm) using 470 nm as excitation wavelength. A measurement is carried out every 30 seconds. The temperature of the water bath is recorded in parallel, and the fluorescence profile as a function of the temperature is reconstituted from these values. The fluorescence profiles are then normalized between 20° C. and 80° C., and the temperature for which the intensity of emission at 515 nm is the mean of those at high and low temperature is called Tm. Under these conditions, the Tm of the reference sample without addition of product is 44° C. in a lithium chloride buffer. This temperature is increased to more than 55° C. in a sodium chloride buffer. The addition of a G-quadruplex-stabilizing compound induces an increase in the Tm. This increase is judged to be significant if it is greater than 3°.

[2] = test system: human telomerease (HL60 cell extract); test: Antitelomerease activity: extension of oligonucleotide TS followed by PCR amplification, with HL60 extract; format: biochemical; settings: read-out: TRAP IC50
Experimental: The antitelomerease biological activity is determined by the following experimental protocol:
The leukaemia line HL60 is obtained from ATCC (American Type Culture Collection, Rockville, USA). The cells are cultured in suspension in RPMI 1640 medium containing L-glutamine at 2 mM, penicillin 200 U/ml, streptomycin 200 μg/ml, gentamycin 50 μg/ml and supplemented with 10% heat-inactivated foetal calf serum.
An aliquot of 10^5 cells is centrifuged at 3000×G and the supernatant discarded. The cell pellet is resuspended by several successive pipettings in 200 μl of lysis buffer containing 0.5% CHAPS, 10 mM Tris-HCl, pH 7.5, 1 mM MgCl2, 1 mM EGTA, 5 mM β-mercaptoethanol, 0.1 mM PMSF and 10% glycerol and is stored in ice for 30 minutes. The lysate is centrifuged at 160,000×G for 20 minutes at 4° C. and 160 μl of supernatant are recovered. The proteins in the extract are assayed by the Bradford method. The extract is stored at −80° C.
The inhibition of the telomerease activity is determined by a protocol for extension of the oligonucleotide TS (^5′AATCGTTCGAGCAGAGTT^3′), in the presence of a cellular extract enriched in telomerease activity and compounds which are added at various concentrations (10, 1, 0.1 and 0.01 μM). The extension reaction is followed by a PCR amplification of the extension products with the aid of the oligonucleotides TS and CXext (^5′[…]^3′).
The reaction medium is prepared based on the following composition:
The oligonucleotides are obtained from Eurogentec (Belgium) and are stored at −20° C. at a stock concentration of 1 mg/ml in distilled water.
The reaction samples are assembled in 0.2 ml PCR tubes and one drop of paraffin oil is deposited on each of the reactions of the experiment before closing the tubes.
The reaction samples are then incubated in a Cetus 4800-type PCR apparatus under the following temperature conditions: • 15 minutes at 30° C., • 1 minute at 90° C., • followed by 30 cycles of, • 30 seconds at 94° C., • 30 seconds at 50° C., • and 1 minute 30 seconds at 72° C., • followed by a final cycle of 2 minutes at 72° C.
For each of the samples, an aliquot of 10 μl is pipetted under the oil layer and mixed with 5 μl of a loading buffer containing:
The samples are then analysed by electrophoresis on 12% acrylamide gel in a 1×TBE buffer for 1 hour at a voltage of 200 volts, with the aid of a Novex electrophoresis system.
The acrylamide gels are then dried on a sheet of Whatmann 3 mm paper at 80° C. for 1 hour.
The analysis and the quantification of the reaction products are carried out with the aid of an InstantImager apparatus (Pacard).
For each compound concentration tested, the results are expressed as percentage inhibition of the reaction and calculated from the untreated enzymatic control and from the enzyme-free sample (blank) according to the following formula: (compound value−blank value/enzymatic control value−blank value)×100.
The concentration of compound inducing a 50% inhibition of the telomerease reaction (IC50) is determined with the aid of a semilogarithmic graphical representation of the inhibition values obtained as a function of each of the compound concentrations tested.
A compound is considered to be active as an antitelomerease agent when the quantity inhibiting 50% of the telomerease reaction is in particular less than 5 μM.

Row | Structure (SMILES) | G4 delta Tm [1] [°C] | IC50 [2] [nM]
1 | Cc1cc(N(C)C)c2cc(Nc3nc(Nc4ccc5nc(C)cc(N(C)C)c5c4)nc(N4CCOCC4)n3)ccc2n1 [Example 24] | 9.7 | 1600
2 | COCCNc1nc(Nc2ccc3nc(C)cc(N(C)C)c3c2)nc(Nc2ccc3nc(C)cc(N(C)C)c3c2)n1 [Example 25] | 4.2 | 2200
3 | Cc1cc(N(C)C)c2cc(Nc3nc(NCCc4ccccc4)nc(Nc4ccc5nc(C)cc(N(C)C)c5c4)n3)ccc2n1 [Example 26] | 4.8 | 1100
4 | Cc1cc(N)c2cc(Nc3nc(Nc4ccc5nc(C)cc(N)c5c4)nc(OCCCN(C)C)n3)ccc2n1 [Example 31, 2,4-bis(4-amino-2-methylquinolin-6-yl)amino-6-(3-dimethylaminopropyl)oxy-[1,3,5]triazine] | 15.3 | 300
5 | Cc1cc(N)c2cc(Nc3nc(Nc4ccc5nc(C)cc(N)c5c4)nc(Oc4ccncc4)n3)ccc2n1 [Example 32, 2,4-bis(4-amino-2-methylquinolin-6-yl)amino-6-(pyridin-4-yl)oxy-[1,3,5]triazine] | 10.0 | 300
6 | Cc1cc(N)c2cc(Nc3nc(Nc4ccc5nc(C)cc(N)c5c4)nc(OCc4ccccc4)n3)ccc2n1 [Example 33, 2,4-bis(4-amino-2-methylquinolin-6-yl)amino-6-(phenylmethyl)oxy-[1,3,5]triazine] | 10.0 | 400
7 | CC(=O)NCCNc1nc(Nc2ccc3nc(C)cc(N)c3c2)nc(Nc2ccc3nc(C)cc(N)c3c2)n1 [Example 35] | 11.0 | 500
8 | CCN(CC)CCNc1nc(Nc2ccc3nc(C)cc(N)c3c2)nc(Nc2ccc3nc(C)cc(N)c3c2)n1 [Example 36] | 17.5 | 240
9 | Cc1cc(N)c2cc(Nc3nc(NCCN(CCN(C)C)Cc4ccccc4)nc(Nc4ccc5nc(C)cc(N)c5c4)n3)ccc2n1 [Example 37] | 17.5 | 230
10 | COC(=O)NCCNc1nc(Nc2ccc3nc(C)cc(N)c3c2)nc(Nc2ccc3nc(C)cc(N)c3c2)n1 [Example 38] | 9.5 | 1000
11 | Cc1cc(N)c2cc(Nc3nc(NCCN(C(C)C)C(C)C)nc(Nc4ccc5nc(C)cc(N)c5c4)n3)ccc2n1 [Example 39] | 19.5 | 230
12 | CCN(CC)CCN(CCN(CC)CC)c1nc(Nc2ccc3nc(C)cc(N)c3c2)nc(Nc2ccc3nc(C)cc(N)c3c2)n1 [Example 40] | 19 | 230
13 | Cc1cc(N)c2cc(Nc3nc(Nc4ccc5nc(C)cc(N)c5c4)nc(N4CCCN(C)CC4)n3)ccc2n1 [Example 42] | 15.5 | 50
14 | CCN(CC)CCN1CCN(c2nc(Nc3ccc4nc(C)cc(N)c4c3)nc(Nc3ccc4nc(C)cc(N)c4c3)n2)CC1 [Example 44] | 17 | 100
15 | Cc1cc(N)c2cc(Nc3nc(NCCN4CCCC4)nc(Nc4ccc5nc(C)cc(N)c5c4)n3)ccc2n1 [Example 46] | 18.5 | 1000
16 | Cc1cc(N)c2cc(Nc3nc(Nc4ccc5nc(C)cc(N)c5c4)nc(N(C)CC4CCN(C)CC4)n3)ccc2n1 [Example 48] | 14 | 100
17 | Cc1cc(N)c2cc(Nc3nc(NCc4ccccn4)nc(Nc4ccc5nc(C)cc(N)c5c4)n3)ccc2n1 [Example 49] | 10 | 1000
18 | Cc1cc(N)c2cc(Nc3nc(NCc4ccccc4)nc(Nc4ccc5nc(C)cc(N)c5c4)n3)ccc2n1 [Example 50] | 7 | 220
19 | COc1cccc(CNc2nc(Nc3ccc4nc(C)cc(N)c4c3)nc(Nc3ccc4nc(C)cc(N)c4c3)n2)c1 [Example 52] | 6.5 | 1300
20 | CCN(CCN(C)C)c1nc(Nc2ccc3nc(C)cc(N)c3c2)nc(Nc2ccc3nc(C)cc(N)c3c2)n1 [Example 53] | 15.5 | 200
21 | Cc1cc(N)c2cc(Nc3nc(NCC[N+](C)(C)C)nc(Nc4ccc5nc(C)cc(N)c5c4)n3)ccc2n1 [Example 54] | 16 | 170
22 | Cc1cc(N)c2cc(Nc3nc(Nc4ccc5nc(C)cc(N)c5c4)nc(Nc4cccc5cn[nH]c45)n3)ccc2n1 [Example 56] | 2.5 | 350
23 | Cc1cc(N)c2cc(Nc3nc(Nc4ccc5nc(C)cc(N)c5c4)nc(N4CCN(CCc5ccccc5)CC4)n3)ccc2n1 [Example 57] | 8 | 300
24 | Cc1cc(N)c2cc(Nc3nc(Nc4ccc5nc(C)cc(N)c5c4)nc(N4CCN(c5ncccn5)CC4)n3)ccc2n1 [Example 58] | 6 | 220
25 | Cc1cc(N)c2cc(Nc3nc(Nc4ccc5nc(C)cc(N)c5c4)nc(N4CCN(c5ccncc5)CC4)n3)ccc2n1 [Example 59] | 11 | 190
26 | Cc1cc(N)c2cc(Nc3nc(Nc4ccc5nc(C)cc(N)c5c4)nc(N4CCN(CCCN(C)C)CC4)n3)ccc2n1 [Example 64] | 12 | 90
27 | Cc1cc(N)c2cc(Nc3nc(Nc4ccc5nc(C)cc(N)c5c4)nc(N(C)C4CCN(Cc5ccccc5)C4)n3)ccc2n1 (centres unmarked) [Example 65] | 12.5 | 1000
28 | Cc1cc(N)c2cc(Nc3nc(NCc4cccnc4)nc(Nc4ccc5nc(C)cc(N)c5c4)n3)ccc2n1 [Example 66] | 9 | 280
